Measured values: publication PMC12715756 (ACS Chemical Neuroscience, 2025)

What was measured:
5-HT2A = target: T1, 5-HT2A (Homo sapiens, UniProt P28223); assay: Gq dissociation BRET assay in HEK293T cells; assay type: cell-based; conditions: for EC50 / Emax ± SEM, %5-HT response 5-HT2A: Gq dissociation BRET; for Emax ± SEM, %5-HT response 5-HT2A: relative to 5-HT; for Emax: HEK-293T, read-out: Emax ± SEM, %5-HT response 5-HT2A, Gq dissociation BRET, relative to 5-HT
T1 construct: expressed in transfected cells; host or cells: HEK293T (ATCC; RRID:CVCL_0063), transient transfection

5-HT2B = target: T2, 5-HT2B (Homo sapiens, UniProt P41595); assay: Gq dissociation BRET assay in HEK293T cells; assay type: cell-based; conditions: for EC50: Gq dissociation BRET; for Emax: HEK-293T, read-out: Emax ± SEM, %5-HT response 5-HT2B
T2 construct: expressed in transfected cells; host or cells: HEK293T (ATCC; RRID:CVCL_0063), transient transfection

male C57BL/6J mice = assay: Head-twitch response (HTR); assay type: in vivo; conditions: IP, 30 min, doses based on the salt form
Experimental: (§1) Male Swiss CD-1 mice (Janvier, Le Genest, France), weighing 30–35 g and aged 6–8 weeks, were used for HLA, thigmotaxis, CPP, and core body temperature experiments. Animals were housed under temperature-controlled conditions (22 ± 1 °C) with a 12 h light/dark cycle and had free access to food and water (standard laboratory diet, Panlab SL, Barcelona, Spain). Doses for HLA, thigmotaxis, CPP, and core body temperature experiments were calculated based on the free base form of each compound. For HTR experiments, male C57BL/6J mice (6–8 weeks old) were obtained from Jackson Laboratories (Bar Harbor, ME, USA) and housed up to four per cage with a reversed light-cycle (lights on at 1900 h, off at 0700 h). Food and water were provided ad libitum, except during behavioral testing. Testing was conducted between 1000 and 1830 h. Doses for HTR experiments were calculated based on the respective salt forms of the compounds.
The HTR was assessed using a head-mounted magnet and a magnetometer detection coil. Mice were anesthetized, a small incision was made in the scalp, and a small neodymium magnet was attached to the dorsal surface of the cranium by using dental cement. Following a two week recovery period, HTR experiments were carried out in a well-lit room with at least 7 days between sessions to avoid carryover effects. Mice (N = 4–7/group) received intraperitoneal (IP) injections of vehicle (saline) or test drug (5 mL/kg injection volume), and then activity was recorded in a glass cylinder surrounded by a magnetometer coil for 30 min. Doses for HTR experiments were calculated based on the respective salt forms of the compounds. Coil voltage was low-pass filtered (1 kHz cutoff frequency), amplified, digitized (20 kHz sampling rate, 16-bit ADC resolution), and saved to disk using a Powerlab 8/35 data acquisition system with LabChart software (ver. 8.1 ADInstruments, Colorado Springs, CO, USA). To detect head twitches, events in the recordings were transformed to scalograms, deep features were extracted using the deep convolutional neural network ResNet-50, and then the images were classified using a support vector machine (SVM). Head twitch counts were analyzed using one-way ANOVA. Posthoc comparisons were made using Dunnett’s test.

DAT [1] = target: T3, DAT (Homo sapiens, UniProt Q01959)
DAT [2] = conditions: incubation at IC50 concentration for 60 min
DAT [3] = target: T3, DAT; assay: cell-based; conditions: read-out: Emax [95%-CI], DAT mediated [3H]MPP+ release
SERT [4] = target: T4, SERT (Homo sapiens, UniProt P31645); assay: Uptake inhibition assay, [3H]5-HT uptake in HEK293 cells; assay type: cell-based; set-up: expressed in transfected cells
NET [5] = target: T5, NET (Homo sapiens, UniProt P23975); assay: Uptake inhibition assay, [3H]MPP+ uptake in HEK293 cells; assay type: cell-based; set-up: expressed in transfected cells
[6] = target: T6, human organic cation transporter 1 (OCT1) (Homo sapiens, UniProt O15245); assay: as above
T6 sequence (O15245 1-554): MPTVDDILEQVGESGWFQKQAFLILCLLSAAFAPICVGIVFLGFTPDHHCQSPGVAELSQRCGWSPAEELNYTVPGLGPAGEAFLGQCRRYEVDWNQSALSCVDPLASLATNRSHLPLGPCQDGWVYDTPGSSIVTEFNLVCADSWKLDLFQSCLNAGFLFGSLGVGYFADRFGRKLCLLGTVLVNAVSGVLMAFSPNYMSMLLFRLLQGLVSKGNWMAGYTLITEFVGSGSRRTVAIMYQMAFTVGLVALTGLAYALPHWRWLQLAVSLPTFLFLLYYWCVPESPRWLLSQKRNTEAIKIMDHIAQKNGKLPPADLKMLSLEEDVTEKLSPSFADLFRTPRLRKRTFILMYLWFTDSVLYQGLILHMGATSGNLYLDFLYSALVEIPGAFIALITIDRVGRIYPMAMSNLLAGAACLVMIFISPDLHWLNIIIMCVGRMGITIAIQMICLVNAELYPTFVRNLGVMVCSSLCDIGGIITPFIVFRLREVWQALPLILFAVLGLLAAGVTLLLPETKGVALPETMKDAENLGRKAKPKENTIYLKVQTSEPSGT

OCT2 = target: T7, OCT2 (Homo sapiens, UniProt O15244); assay: as above
T7 sequence (O15244 1-555): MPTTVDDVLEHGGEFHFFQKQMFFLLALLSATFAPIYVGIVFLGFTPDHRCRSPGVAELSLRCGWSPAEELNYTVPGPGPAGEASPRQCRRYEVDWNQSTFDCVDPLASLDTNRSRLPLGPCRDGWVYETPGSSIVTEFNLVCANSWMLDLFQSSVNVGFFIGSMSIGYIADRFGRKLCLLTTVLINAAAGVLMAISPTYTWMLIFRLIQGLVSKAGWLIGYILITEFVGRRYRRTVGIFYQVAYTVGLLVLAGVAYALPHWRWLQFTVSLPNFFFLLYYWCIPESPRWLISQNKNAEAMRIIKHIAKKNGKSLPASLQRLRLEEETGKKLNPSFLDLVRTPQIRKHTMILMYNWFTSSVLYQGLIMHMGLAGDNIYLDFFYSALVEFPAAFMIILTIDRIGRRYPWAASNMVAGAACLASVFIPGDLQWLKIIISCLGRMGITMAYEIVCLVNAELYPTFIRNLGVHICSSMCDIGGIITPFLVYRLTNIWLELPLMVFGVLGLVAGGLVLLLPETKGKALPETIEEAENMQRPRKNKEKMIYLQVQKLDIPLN

SERT [7] = target: T4, SERT; assay: Release (superfusion) assay, SERT mediated [3H]5-HT efflux; conditions: for Emax: read-out: Emax [95%-CI], SERT mediated [3H]5-HT efflux
NET [8] = target: T5, NET; assay: Release (superfusion) assay, NET mediated [3H]MPP+ release; conditions: for Emax: read-out: Emax [95%-CI], NET mediated [3H]MPP+ release
[9] = Metabolic stability, substrate depletion in pooled human liver microsomes; conditions: human, pooled human liver microsomes
male Swiss CD-1 mice = assay: Conditioned place preference (CPP); assay type: in vivo; conditions: 10 mg/kg i.p., compared to saline
Experimental: as §1
For this experiment, an apparatus with two distinct compartments, differing in tactile and visual cues, connected by a central corridor, was used. The conditioned place preference (CPP) procedure consisted of three phases: preconditioning, conditioning, and postconditioning. In the preconditioning phase (day 0), mice were placed in the middle of the corridor and allowed to freely explore both compartments for 15 min. The time spent in each compartment was recorded and monitored using specific tracking software (Smart 3.0 Panlab, Barcelona, Spain). In the conditioning phase (day 1–day 8), access to the corridor was closed. […] On alternate days, , mice received a saline i.p. injection and were placed in the other compartment for 30 min. Mice in the control group received a saline injection in every session. The compartments and sessions in which the drug was administered were randomized. In the postconditioning phase (test day), the same conditions as the preconditioning phase were reinstated. A preference score was determined by calculating the difference in time spent in the drug-paired compartment between the post- and preconditioning phases.

[10] = pHLM; literature data ref 9 (Alberto-Silva et al., 2024); cited from earlier work
[11] = system: NGF-differentiated PC12 cells; assay: Cytotoxicity, WST-8 assay; conditions: 24 hours

T4 sequence (P31645 whole entry): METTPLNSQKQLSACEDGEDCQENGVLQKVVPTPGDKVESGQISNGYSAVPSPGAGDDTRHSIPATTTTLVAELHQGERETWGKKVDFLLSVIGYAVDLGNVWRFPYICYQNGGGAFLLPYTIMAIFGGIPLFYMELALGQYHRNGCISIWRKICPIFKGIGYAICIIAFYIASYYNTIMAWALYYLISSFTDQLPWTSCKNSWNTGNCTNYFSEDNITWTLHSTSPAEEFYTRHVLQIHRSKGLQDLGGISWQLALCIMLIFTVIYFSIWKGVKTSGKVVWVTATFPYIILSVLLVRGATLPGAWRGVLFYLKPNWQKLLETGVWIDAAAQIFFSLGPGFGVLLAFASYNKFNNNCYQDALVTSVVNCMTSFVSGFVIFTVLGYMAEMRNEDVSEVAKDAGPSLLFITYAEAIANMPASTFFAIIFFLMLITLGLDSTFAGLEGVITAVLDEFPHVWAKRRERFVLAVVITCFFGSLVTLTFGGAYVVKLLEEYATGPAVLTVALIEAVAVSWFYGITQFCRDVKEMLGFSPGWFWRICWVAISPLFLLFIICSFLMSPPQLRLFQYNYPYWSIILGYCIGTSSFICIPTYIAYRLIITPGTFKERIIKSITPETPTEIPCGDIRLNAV
T5 sequence (P23975 whole entry): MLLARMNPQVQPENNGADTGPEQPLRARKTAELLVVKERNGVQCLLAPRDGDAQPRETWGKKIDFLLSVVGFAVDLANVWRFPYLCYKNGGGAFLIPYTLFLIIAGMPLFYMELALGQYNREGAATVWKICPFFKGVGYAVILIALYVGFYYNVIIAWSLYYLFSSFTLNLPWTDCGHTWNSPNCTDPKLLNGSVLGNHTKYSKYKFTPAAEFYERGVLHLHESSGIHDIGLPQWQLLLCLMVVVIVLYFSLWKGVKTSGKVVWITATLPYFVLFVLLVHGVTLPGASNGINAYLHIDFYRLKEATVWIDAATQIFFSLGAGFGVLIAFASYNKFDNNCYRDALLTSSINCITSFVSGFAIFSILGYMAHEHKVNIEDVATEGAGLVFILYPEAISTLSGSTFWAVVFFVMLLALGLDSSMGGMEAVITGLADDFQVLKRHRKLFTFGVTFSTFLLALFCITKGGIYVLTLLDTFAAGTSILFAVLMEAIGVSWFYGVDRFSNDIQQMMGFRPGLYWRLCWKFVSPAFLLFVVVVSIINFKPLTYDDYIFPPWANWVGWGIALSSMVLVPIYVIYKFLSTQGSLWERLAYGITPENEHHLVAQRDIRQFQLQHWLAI
T2 sequence (P41595 whole entry): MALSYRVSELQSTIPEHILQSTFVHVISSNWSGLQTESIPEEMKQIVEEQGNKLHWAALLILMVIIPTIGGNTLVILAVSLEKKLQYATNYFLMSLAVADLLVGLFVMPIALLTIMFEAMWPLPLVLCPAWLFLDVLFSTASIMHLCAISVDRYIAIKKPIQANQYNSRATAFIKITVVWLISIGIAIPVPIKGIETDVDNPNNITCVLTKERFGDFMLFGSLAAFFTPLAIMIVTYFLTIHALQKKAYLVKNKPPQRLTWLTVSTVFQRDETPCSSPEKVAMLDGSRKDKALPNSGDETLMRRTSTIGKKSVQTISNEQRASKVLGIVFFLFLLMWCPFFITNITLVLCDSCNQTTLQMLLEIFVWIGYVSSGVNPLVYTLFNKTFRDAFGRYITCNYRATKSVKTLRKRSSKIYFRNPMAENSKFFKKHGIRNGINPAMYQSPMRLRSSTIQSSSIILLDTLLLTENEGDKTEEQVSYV
T3 sequence (Q01959 whole entry): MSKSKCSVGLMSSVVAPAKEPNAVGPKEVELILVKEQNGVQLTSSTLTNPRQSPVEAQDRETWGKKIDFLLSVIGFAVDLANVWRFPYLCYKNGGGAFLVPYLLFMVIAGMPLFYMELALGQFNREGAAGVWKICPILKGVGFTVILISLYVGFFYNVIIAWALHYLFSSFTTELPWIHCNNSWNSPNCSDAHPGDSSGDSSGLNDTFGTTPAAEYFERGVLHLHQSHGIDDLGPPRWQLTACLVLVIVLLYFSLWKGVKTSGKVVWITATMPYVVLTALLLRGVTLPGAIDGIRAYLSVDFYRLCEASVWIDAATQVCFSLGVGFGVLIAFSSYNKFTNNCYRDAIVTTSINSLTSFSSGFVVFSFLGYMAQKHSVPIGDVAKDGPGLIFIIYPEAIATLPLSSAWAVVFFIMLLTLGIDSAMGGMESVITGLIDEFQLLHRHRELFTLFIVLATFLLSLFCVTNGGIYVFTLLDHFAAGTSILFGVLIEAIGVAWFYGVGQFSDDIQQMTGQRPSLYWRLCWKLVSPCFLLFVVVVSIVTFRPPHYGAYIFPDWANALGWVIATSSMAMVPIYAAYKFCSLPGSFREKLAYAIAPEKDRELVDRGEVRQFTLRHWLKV
T1 sequence (P28223 whole entry): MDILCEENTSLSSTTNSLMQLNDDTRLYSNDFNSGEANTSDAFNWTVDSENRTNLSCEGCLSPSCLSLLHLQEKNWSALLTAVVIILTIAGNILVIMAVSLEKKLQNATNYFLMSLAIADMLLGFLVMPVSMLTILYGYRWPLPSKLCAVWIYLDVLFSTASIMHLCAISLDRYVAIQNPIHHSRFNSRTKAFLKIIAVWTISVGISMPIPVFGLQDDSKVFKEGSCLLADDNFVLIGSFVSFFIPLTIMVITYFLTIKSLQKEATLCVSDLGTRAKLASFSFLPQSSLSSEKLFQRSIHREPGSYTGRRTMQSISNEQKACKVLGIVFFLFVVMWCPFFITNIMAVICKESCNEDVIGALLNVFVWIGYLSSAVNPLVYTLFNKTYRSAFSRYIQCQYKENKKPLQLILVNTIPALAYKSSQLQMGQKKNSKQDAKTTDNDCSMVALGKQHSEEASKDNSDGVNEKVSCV

| SMILES | EC50 (5-HT2A; EC50 5-HT2A) | Emax ± SEM, %5-HT response 5-HT2A (5-HT2A) | Emax (5-HT2A) | EC50 (5-HT2B; EC50 5-HT2B) | Emax (5-HT2B) | HTR counts (male C57BL/6J mice) | type of releaser at DAT (DAT [1]) | Emax (DAT [3]) | IC50 (SERT [4]) | IC50 (NET [5]) | IC50 [6] | IC50 (OCT2) | EC50 (SERT [7]) | type of releaser at SERT (SERT [7]) | Emax (SERT [7]) | EC50 (NET [8]) | type of releaser at NET (NET [8]) | Emax (NET [8]) | also measured |
| --- | --- | --- | --- | --- | --- | --- | --- | --- | --- | --- | --- | --- | --- | --- | --- | --- | --- | --- | --- |
| CC(N)Cc1ccc2c(c1)OCO2 (stereo not shown) [MDA, 3,4-Methylenedioxyamphetamine, reference compound] | 0.905 µM | 87.8 ± 2.4% | > 70% | 139 nM | 104 ± 4.9% | dose-related increase in HTR counts peaking at 3 mg/kg | partial releasers | 67.2% | 22.9 ± 2.27 µM | 3.33 ± 0.47 µM | 6.93 ± 2.63 µM | 5.13 ± 1.18 µM | 4.35 µM | partial releasers | 45.5% | 350 nM | full releasers | 126% | transporter expression on plasma membrane level (DAT [2]): expression levels slightly increased; half-life at 0.5 μM [9]: > 150 min |
| CNC(C)Cc1ccc2c(c1)OCO2 (stereo not shown) [MDMA, 3,4-Methylenedioxymethamphetamine, reference compound] | 3.13 µM | 66.0 ± 2.3% | < 70% | 531 nM | 59.9 ± 5.1% | Neither MDMA nor SDMA induced an appreciable increase in HTR counts | partial releasers | 43.1% | 6.47 ± 0.93 µM | 3.17 ± 0.72 µM | 5.09 ± 3.14 µM | 5.3 ± 0.25 µM | 1.95 µM | partial releasers | 39.3% | 730 nM | full releasers | 111% | EC50 (5-HT2A; pEC50 ± SEM 5-HT2A): 3.09 µM; EC50 (5-HT2B; pEC50 ± SEM 5-HT2B): 525 nM; rewarding effects (CPP preference score) (male Swiss CD-1 mice): induce rewarding effects; in vitro half-life (t1/2) [10]: > 150 min; concentration at which cytotoxicity starts [11]: 2 mM |
